Where “and” joins values, the source holds several entries; their conditions need not be identical. Equal values may be shown once. Entries after “also recorded” stand apart in the source; their conditions may differ. Read-outs that look alike come from different tables or passages of the source.
Tests used:
[1] = target: T1, hM3Dq (Homo sapiens, UniProt P20309, A239G/Y149C); experiment: Locomotor activity in TH-hM3Dq rats; assay type: in vivo, rat; set-up: host or cells: TH-expressing neurons of the ventral tegmental area in TH:Cre rats (AAV transduction, in vivo); conditions: for hM3Dq-stimulated locomotion: 0.01-0.3 mg kg-1
Experimental: Tyrosine hydroxylase (TH):Cre rats (n = 9; founder, K. Deisseroth lab) or WT littermates (n = 9) were bilaterally injected with AAV2 hSyn-DIO-hM3Dq-mCherry (1ul/hemisphere, Addgene), and allowed to recover for 2 + weeks. […] Vehicle was administered on 2 separate days, and average locomotion was used for comparison with DREADD agonists. Cohort 2 underwent the same procedures, but with a 4 h testing session, and the following IP injections: vehicle (x2), JHU37152 (0.01–0.3 mg kg^−1), JHU37160 (0.01–0.3 mg kg^−1). All drugs were dissolved in 5% DMSO in saline, and injected 1 ml kg^−1.

[2] = target: T2, hM4Di (Homo sapiens, UniProt P08173, A203G/Y113C); experiment: [3H]clozapine competition binding, membranes of HEK-293 cells expressing hM4Di
T2 sequence (P08173 1-479 Y113C/A203G): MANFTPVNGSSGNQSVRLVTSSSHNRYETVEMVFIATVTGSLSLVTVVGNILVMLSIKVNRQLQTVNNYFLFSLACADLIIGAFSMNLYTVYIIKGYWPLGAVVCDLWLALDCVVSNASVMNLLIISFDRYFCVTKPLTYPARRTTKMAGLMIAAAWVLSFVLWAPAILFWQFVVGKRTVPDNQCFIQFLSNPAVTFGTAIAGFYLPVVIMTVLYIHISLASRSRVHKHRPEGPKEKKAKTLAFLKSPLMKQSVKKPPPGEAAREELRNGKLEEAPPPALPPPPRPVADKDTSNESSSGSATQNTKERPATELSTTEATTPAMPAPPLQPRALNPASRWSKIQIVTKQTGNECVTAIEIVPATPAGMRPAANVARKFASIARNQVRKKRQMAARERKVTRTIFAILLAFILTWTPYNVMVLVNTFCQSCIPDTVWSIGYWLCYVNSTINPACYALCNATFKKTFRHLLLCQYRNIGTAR
Experimental: (§1) Cells were routinely tested for myclopasma contamination (MycoAlert® Mycoplasma Detection Kit, Lonza). Cells were seeded on 60 cm^2 dishes at 4 × 10^6 cells/dish 24 h before transfection. The indicated amount of cDNA was transfected into HEK-293 cells using polyethylenimine (PEI; Sigma-Aldrich) in a 1–2 DNA:PEI ratio. Cell harvesting for radioligand binding experiments or signaling assays were performed approximately 48 h after transfection.
(§2) Cells were suspended in Tris-HCl 50 mM pH 7.4 supplemented with protease inhibitor cocktail (1:100, Sigma-Aldrich, St. Louis, MO, USA). The dissected brain tissue was diluted in Tris-HCl 50 mM buffer supplemented with protease inhibitor cocktail (1:1000). HEK-293 cells or brain tissue were disrupted with a Polytron homogenizer (Kinematica, Basel, Switzerland). Homogenates were centrifuged at 48,000g (50 min, 4 °C) and washed twice in the same conditions to isolate the membrane fraction. Protein was quantified by the bicinchoninic acid method (Pierce). […] In all cases, free and membrane-bound radioligand were separated by rapid filtration of 500-μl aliquots in a 96-well plate harvester (Brandel, Gaithersburg, MD, USA) and washed with 2 ml of ice-cold Tris-HCl buffer. […] One-site competition curves were fitted using Prism 7 (GraphPad Software, La Jolla, CA, USA). Ki values were calculated using the Cheng–Prusoff equation.

[3] = system: untransfected HEK-293 cells; experiment: Negative controls of the functional assays: HEK-293 cells without DREADD; assay type: cell-based, human; conditions: for functional response, BRET (Go-alpha-Rluc8, beta1, gamma2-mVenus), no DREADD / functional response, GCaMP6f, no DREADD: HEK-293 cells
Experimental: BRET assays were performed to detect receptor ligand-induced Gαo1 protein activation. […] Forty-eight hour after transfection cells were harvested, washed and resuspended in phosphate-buffered saline (PBS). Approximately, 200,000 cells/well were distributed in 96-well plates, and 5 µM Coelenterazine H (substrate for luciferase) was added to each well. Five minutes after addition of Coelenterazine H, ligands were added to each well. The fluorescence of the acceptor was quantified (excitation at 500 nm and emission at 540 nm for 1-s recordings) in a PheraStar FSX plate reader (BMG Labtech) to confirm the constant expression levels across experiments. In parallel, the BRET signal from the same batch of cells was determined as the ratio of the light emitted by mVenus (510–540 nm) over that emitted by RLuc (485 nm). Results were calculated for the BRET change (BRET ratio for the corresponding drug minus BRET ratio in the absence of the drug) 5 min after the addition of the ligands.
Intracellular Ca^2+ concentration was monitored using the fluorescent Ca^2+ biosensor GCaMP6f. HEK-293 cells were transfected with 7 µg/dish of the cDNA encoding for hM3Dq (Addgene #89149) or hM4Di (Addgene #89150) and 7 µg/dish of GCaMP6. Forty-eight hours after transfection, cells were harvested, washed, resuspended in Mg^2+-free Locke’s buffer pH 7.4 (154 mM NaCl, 5.6 mM KCl, 3.6 mM NaHCO3, 2.3 mM CaCl2, and 5 mM HEPES) containing 5.6 mM of glucose and approximately 200,000 cells/well were distributed in black 96-well plates. Increasing concentrations of the indicated compound were added to the cells and fluorescence intensity (excitation at 480 nm, emission at 530 nm) was measured at 18-s intervals during 250 s using a PHERAstar FSX (BMG Labtech). The net change in intracellular Ca^2+ concentration was expressed as F − F0 where F is the fluorescence at a given concentration of ligand and F0 is the average of the baseline values (fluorescence values of buffer-treated wells).

[4] = system: WT mice; experiment: Locomotor activity in WT mice
Excerpt: (§3) Wild-type mice (C57BL/6J) were ordered from Jackson Laboratories and rats (Sprague–Dawley) were ordered from Charles River. Rodents were male and ordered at ~6 weeks of age. Transgenic mice were bred at NIDA breeding facility. […] Three male rhesus monkeys (Macaca mulatta) weighed 8–12 kg. All experiments and procedures complied with all relevant ethical regulations for animal testing and research and followed NIH guidelines and were approved by each institute’s animal care and use committees.
(§4) Ten minutes after injection, animals were placed in an open field arena (Opto-varimex ATM3, Columbus Instruments) and their locomotor activity was tracked during 60 min as infrared beam crossings and traveled distance was converted to cm. Animals were repeatedly tested on consecutive sessions (after an initial habituation session with no drug treatment) in a counterbalanced design.

[5] = target: T3, P-gp (Homo sapiens, UniProt P08183); experiment: P-glycoprotein (P-gp) substrate assay in Caco-2 cells with and without verapamil; assay type: in vitro ADME; conditions: Caco-2, efflux ratio with/without verapamil
T3 construct: host or cells: Caco-2
Experimental: These experiments were performed by an outside vendor (Eurofins, France). C21 was tested in P-gp substrate assessment assays at 10 µM. The A to B and B to A permeability was measured in Caco-2 cells in the presence and absence of verapamil, a P-gp inhibitor. Efflux ratios (E) were calculated based on the apparent B–A and A–B permeability with and without verapamil. In each experiment, the respective reference compound was tested concurrently with the test compound to assess the assay reliability. Fluorescein was used as the cell monolayer integrity marker. Fluorescein permeability assessment (in the A–B direction at pH 7.4 on both sides) was performed after the permeability assay for the test compound.

[6] = system: striatal DREADDs; experiment: [11C]clozapine PET DREADD occupancy in AAV-DREADD mice; conditions: for occupancy of striatal DREADDs: 0.1 mg kg-1 IP
Experimental: Animals were anesthetized with isoflurane or a mix of ketamine/xylazine and prepped on a stereotaxic apparatus (Kopf, Germany). […] When indicated, animals were pretreated with vehicle or the indicated drug 10 min before the injection of the PET radiotracer. Total acquisition time was 60 min.
In all cases, the PET data were reconstructed and corrected for dead-time and radioactive decay. All qualitative and quantitative assessments of PET images were performed using the PMOD software environment (PMOD Technologies, Zurich Switzerland). Binding potential BPND (a relative measure of specific binding) was calculated using a reference tissue model using the cerebellum as a reference tissue in rodents. In macaques, the kinetic data were fitted to a two-tissue compartment model and the concentration of parent in plasma was used as an input function, then the volume of distribution ratios compared to cerebellum were calculated to establish BPND. In all cases, the dynamic PET images were coregistered to MRI templates and time-activity curves were generated using predefined volumes of interest (macaques) or manually drawn in rodents and the described analyses were performed. Receptor occupancy was calculated using the formula: occupancy = (BPND^0 − BPND^Drug)/BPND^0 × 100, where BPND^0 is the binding potential of the baseline condition and BPND^Drug the binding potential when the animals were pretreated with the drug.

[7] = target: T1, hM3Dq; experiment: [3H]clozapine competition binding, membranes of HEK-293 cells expressing hM3Dq
Experimental: as §1, §2

[8] = target: T2, hM4Di; experiment: Locomotor activity in D1-hM4Di mice
Excerpt: as §3, §4

[9] = D1-hM4Di mice, 0.01 to 1 mg kg-1

T1 sequence (P20309 whole entry Y149C/A239G): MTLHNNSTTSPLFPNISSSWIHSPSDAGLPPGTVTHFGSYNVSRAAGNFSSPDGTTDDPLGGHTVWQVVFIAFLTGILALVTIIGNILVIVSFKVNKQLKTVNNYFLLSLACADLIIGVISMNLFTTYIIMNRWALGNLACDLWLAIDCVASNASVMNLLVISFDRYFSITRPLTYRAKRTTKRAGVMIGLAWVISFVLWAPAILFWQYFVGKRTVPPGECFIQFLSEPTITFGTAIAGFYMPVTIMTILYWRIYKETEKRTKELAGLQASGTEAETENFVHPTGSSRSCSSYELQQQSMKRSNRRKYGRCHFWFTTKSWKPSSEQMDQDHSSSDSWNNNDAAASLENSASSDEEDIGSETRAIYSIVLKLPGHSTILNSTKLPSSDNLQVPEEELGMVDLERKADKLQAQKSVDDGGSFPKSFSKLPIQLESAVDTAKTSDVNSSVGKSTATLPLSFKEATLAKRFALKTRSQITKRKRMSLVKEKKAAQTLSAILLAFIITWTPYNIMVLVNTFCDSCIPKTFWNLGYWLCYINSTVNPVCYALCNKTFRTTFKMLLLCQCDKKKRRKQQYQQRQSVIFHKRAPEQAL
T3 sequence (P08183 whole entry): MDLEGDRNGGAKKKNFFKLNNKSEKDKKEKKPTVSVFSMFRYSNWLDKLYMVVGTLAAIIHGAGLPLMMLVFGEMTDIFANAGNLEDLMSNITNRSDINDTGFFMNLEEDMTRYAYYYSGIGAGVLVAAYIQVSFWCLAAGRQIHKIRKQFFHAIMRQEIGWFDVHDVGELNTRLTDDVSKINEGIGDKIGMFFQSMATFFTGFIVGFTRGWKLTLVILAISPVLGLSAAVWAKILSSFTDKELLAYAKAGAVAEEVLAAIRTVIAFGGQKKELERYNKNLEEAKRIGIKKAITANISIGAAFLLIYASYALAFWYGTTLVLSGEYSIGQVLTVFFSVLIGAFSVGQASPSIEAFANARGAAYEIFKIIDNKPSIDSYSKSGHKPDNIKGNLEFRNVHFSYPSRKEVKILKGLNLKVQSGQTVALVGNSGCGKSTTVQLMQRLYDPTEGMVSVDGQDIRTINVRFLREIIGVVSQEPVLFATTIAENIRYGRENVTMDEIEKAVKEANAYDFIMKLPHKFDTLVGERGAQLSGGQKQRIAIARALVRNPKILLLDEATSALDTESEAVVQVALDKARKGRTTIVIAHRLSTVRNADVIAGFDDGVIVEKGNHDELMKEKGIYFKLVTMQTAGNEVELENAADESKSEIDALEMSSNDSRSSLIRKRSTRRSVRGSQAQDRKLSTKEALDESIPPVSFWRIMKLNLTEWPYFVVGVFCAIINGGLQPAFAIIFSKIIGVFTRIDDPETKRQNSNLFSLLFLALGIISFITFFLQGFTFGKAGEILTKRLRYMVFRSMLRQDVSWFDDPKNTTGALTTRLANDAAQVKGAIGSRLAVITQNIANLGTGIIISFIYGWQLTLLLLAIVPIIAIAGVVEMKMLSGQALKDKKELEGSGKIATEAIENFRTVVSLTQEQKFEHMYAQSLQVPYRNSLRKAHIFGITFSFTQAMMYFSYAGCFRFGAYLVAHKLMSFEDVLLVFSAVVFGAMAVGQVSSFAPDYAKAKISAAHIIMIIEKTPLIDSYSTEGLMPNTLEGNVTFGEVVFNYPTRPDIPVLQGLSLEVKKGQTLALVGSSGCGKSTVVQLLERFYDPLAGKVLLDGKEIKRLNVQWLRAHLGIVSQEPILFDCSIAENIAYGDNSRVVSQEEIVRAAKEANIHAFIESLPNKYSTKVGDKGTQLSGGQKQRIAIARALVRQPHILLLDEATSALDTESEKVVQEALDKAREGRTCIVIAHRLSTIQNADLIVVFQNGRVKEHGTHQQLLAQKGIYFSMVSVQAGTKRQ

## c1ccc2c(c1)N=C(N1CCNCC1)c1ccccc1N2 [C21]
[1]; TH-hM3Dq rats, 1 or 5 mg/kg IP
  locomotor activity: significant increases in locomotor activity
[2]; read-out: hM4Di Ki, [3H]clozapine competition, HEK-293 membranes
  Ki: 91 nM
[3]
  functional response in HEK-293 cells lacking DREADDs: Neither clozapine nor C21 produced detectable functional responses
  functional response, BRET (Go-alpha-Rluc8, beta1, gamma2-mVenus), no DREADD: did not show any functional response
  functional response, GCaMP6f, no DREADD: did not show any functional response
[4]; WT mice, 10 mg/kg
  locomotor activity / non-specific effects: produced non-specific effects
[4]; mice without DREADDs
  doses producing off-target effects: higher than 1 mg kg^-1
[4]; mouse, in vivo
  locomotor activity: did not affect locomotor activity
[5]
  P-gp substrate: none of these compounds is a substrate for P-gp
[6]; 1 mg/kg IP
  in vivo DREADD occupancy ([11C]CLZ displacement): ~ 10%
[7]; DREADDs in HEK-293 cells
  less affinity than CLZ: 100 fold
[7]; read-out: affinity (approximate, for equipotent concentrations), DREADD not specified
  Ki: ~200 nM
[7]; read-out: hM3Dq Ki
  Ki: 230 nM
[8]; D1-hM4Di mice, 1 mg/kg
  locomotor activity: small but significant decrease in locomotor activity
[8]; D1-hM4Di mice, 10 mg/kg
  behavior: sedation
[8]; rodents
  dose required to activate hM4Di: at least 1 mg kg^-1

## CCN1CCN(C2=Nc3cc(Cl)ccc3Nc3cccc(F)c32)CC1 [JHU37152, 8-Chloro-11-(4-ethylpiperazin-1-yl)-1-fluoro-5H-dibenzo[b,e][1,4]diazepine]
[1]; dose 0.01, listed as J52
  Locomotor activity, individual animals (Figure 3 Panel G): 94.7443 and 207.479 and 64.3586 and 274.036 and 1667.81 and 1211.25 and 111.862
[1]; dose 0.1, listed as J52
  Locomotor activity, individual animals (Figure 3 Panel G): 1115.35 and 940.001 and 366.654 and 337.558 and 1635.37 and 694.852 and 547.724
[1]; TH-hM3Dq rats
  hM3Dq-stimulated locomotion: robust, selective increases in hM3Dq-stimulated locomotion
[2]
  Ki: 8.7 nM
[3]
  functional response in HEK-293 cells lacking DREADDs: no responses were observed; also recorded: did not produce any agonistic effect
  functional response, BRET (Go-alpha-Rluc8, beta1, gamma2-mVenus), no DREADD: did not show any functional response
  functional response, GCaMP6f, no DREADD: did not show any functional response
[4]; WT mice, 0.01 to 1 mg kg-1
  locomotor activity: without any significant locomotor effects
[4]; WT mice, dose 0.01
  Locomotor activity, individual animals (Figure 3 Panel A): 95.2897 and 38.5088 and 39.3587 and 61.0726 and 69.3706 and 99.6544 and 90.1854 and 160.23 and 57.4795 and 29.9947 and 33.6903 and 133.302 and 88.2496 and 102.637 and 90.23
[4]; WT mice, dose 0.1
  Locomotor activity, individual animals (Figure 3 Panel A): 107.254 and 270.493 and 33.7361 and 22.8384 and 36.807 and 76.5906 and 34.7692 and 97.3133 and 74.027 and 53.9478 and 95.1236 and 125.045 and 39.4044 and 129.319 and 143.965
[4]; WT mice, dose 1
  Locomotor activity, individual animals (Figure 3 Panel A): 81.5049 and 96.9074 and 39.4517 and 156.512 and 62.1842 and 92.749 and 79.3711 and 129.761 and 80.0996 and 7.993 and 23.9209 and 25.8105 and 93.4157 and 30.5341 and 90.9279
[5]
  P-gp substrate: Neither JHU37152 nor JHU37160 were P-gp substrates
[5]; listed as J52
  P-gp substrate: none of these compounds is a substrate for P-gp
[6]
  occupancy of striatal DREADDs: 15–20%
[7]
  Ki: 1.8 nM
[8]; [9]
  locomotor activity: selectively inhibiting locomotor activity
[8]; dose 0.01
  Locomotor activity, individual animals (Figure 3 Panel C): 58.5024 and 108.441 and 109.915 and 131.721 and 115.402 and 75.1276 and 118.881 and 108.271 and 41.4007
[8]; dose 0.1
  Locomotor activity, individual animals (Figure 3 Panel C): 72.1502 and 118.453 and 147.655 and 108.28 and 115.789 and 27.5857 and 55.2206 and 30.1649 and 43.619
[8]; dose 1
  Locomotor activity, individual animals (Figure 3 Panel C): 21.6168 and 115.427 and 110.069 and 108.688 and 73.7541 and 20.9336 and 36.5894 and 6.171 and 23.7054

## CCN1CCN(C2=Nc3cc(Cl)ccc3Nc3c(F)cccc32)CC1 [JHU37160, 8-Chloro-11-(4-ethylpiperazin-1-yl)-4-fluoro-5H-dibenzo[b,e][1,4]diazepine]
[1]; dose 0.01, listed as J60
  Locomotor activity, individual animals (Figure 3 Panel G): 279.417 and 1024.06 and 48.7042 and 167.624 and 1237.61 and 111.992 and 663.301
[1]; dose 0.1, listed as J60
  Locomotor activity, individual animals (Figure 3 Panel G): 1035.55 and 900.553 and 68.6081 and 759.611 and 1367.43 and 667.9 and 184.82
[1]; TH-hM3Dq rats
  hM3Dq-stimulated locomotion: robust, selective increases in hM3Dq-stimulated locomotion
[2]
  Ki: 3.6 nM
  improved affinity compared to C21: ~ 25 fold
[3]
  functional response in HEK-293 cells lacking DREADDs: no responses were observed; also recorded: did not produce any agonistic effect
  functional response, BRET (Go-alpha-Rluc8, beta1, gamma2-mVenus), no DREADD: did not show any functional response
  functional response, GCaMP6f, no DREADD: did not show any functional response
[4]; WT mice, 0.01 to 1 mg kg-1
  locomotor activity: without any significant locomotor effects
[4]; WT mice, dose 0.01
  Locomotor activity, individual animals (Figure 3 Panel A): 15.4443 and 132.603 and 147.829 and 129.309 and 75.7603 and 45.5126 and 63.7894 and 145.958 and 96.1391 and 10.074 and 65.3531 and 48.0503 and 10.0356 and 25.3389 and 152.354 and 157.609 and 175.04
[4]; WT mice, dose 0.1
  Locomotor activity, individual animals (Figure 3 Panel A): 28.3765 and 136.794 and 39.0145 and 128.13 and 27.5178 and 138.037 and 95.0881 and 162.364 and 107.636 and 24.3135 and 117.274 and 117.261 and 37.3098 and 136.435 and 99.1126 and 117.312 and 123.413
[4]; WT mice, dose 1
  Locomotor activity, individual animals (Figure 3 Panel A): 10.497 and 121.35 and 79.3619 and 104.303 and 59.97 and 24.8262 and 41.2959 and 159.16 and 61.4696 and 5.601 and 141.242 and 63.7125 and 17.4822 and 64.5071 and 75.0041 and 144.933 and 145.945
[5]
  P-gp substrate: Neither JHU37152 nor JHU37160 were P-gp substrates
[5]; listed as J60
  P-gp substrate: none of these compounds is a substrate for P-gp
[6]
  occupancy of striatal DREADDs: 15–20%
[7]
  Ki: 1.9 nM
[8]; [9]
  locomotor activity: selectively inhibiting locomotor activity
[8]; dose 0.01
  Locomotor activity, individual animals (Figure 3 Panel C): 87.297 and 55.7522 and 80.3935 and 127.49 and 164.341 and 150.985 and 118.596 and 28.6623 and 109.457 and 25.9025 and 156.84
[8]; dose 0.1
  Locomotor activity, individual animals (Figure 3 Panel C): 22.2583 and 26.4102 and 36.6386 and 50.3064 and 38.3173 and 43.9761 and 103.495 and 48.2345 and 24.5922 and 6.944 and 42.5594
[8]; dose 1
  Locomotor activity, individual animals (Figure 3 Panel C): 71.4509 and 37.5721 and 8.672 and 75.5783 and 18.1309 and 89.8357 and 75.9222 and 7.305 and 23.6013 and 9.934 and 15.3384
